{
  "source": "ChEMBL document CHEMBL1132015",
  "about": "“Selective inactivation of protein tyrosine phosphatase PTP1B by sulfone analogue of naphthoquinone” (Bioorg Med Chem Lett, 1999)",
  "test": "Inhibitory constant was determined against Protein tyrosine phosphatase (PTP) using the Kitz and Wilson method",
  "data": [
    {"smiles": "O=C1C(CCl)=CS(=O)(=O)c2ccccc21", "values": [
      {"measurement": "Ki", "value": 3.5, "unit": "µM"}
    ]}
  ]
}
